molecular target: Factor D (Homo sapiens (Human), UniProt P00746); assay: Factor D esterolytic assay (Z-Lys-SBzl substrate, DTNB, 405 nm); assay type: biochemical; settings: Z-Lys-SBzl 1.29 mM, pH 7.5, 10% DMSO, tested a minimum of three times, read-out: Measured Ki (IC50) Value for Compounds: IC50
Procedure, shortened: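 Human Factor D ([…]) with 1.29 mM Z-Lys-SBzl in 100 mM HEPES, 500 mM NaCl, pH 7.5, 10% DMSO; substrate added immediately or after room-temperature preincubation. Released thiol reacted with DTNB, rate followed at 405 nm for 600 sec, 690 nm background subtracted. IC50 from percent inhibition versus uninhibited rate, n≥3.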

Sequence of Factor D (P00746 26-253): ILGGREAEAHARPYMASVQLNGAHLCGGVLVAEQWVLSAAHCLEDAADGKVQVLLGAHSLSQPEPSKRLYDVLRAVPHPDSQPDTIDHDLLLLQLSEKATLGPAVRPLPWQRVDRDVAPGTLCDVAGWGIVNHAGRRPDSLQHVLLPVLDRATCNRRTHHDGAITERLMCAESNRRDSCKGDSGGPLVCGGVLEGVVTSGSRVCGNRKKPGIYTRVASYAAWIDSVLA

Row | Structure (SMILES) | IC50
1 | CC(C)Cc1cc2cc(COc3ccccc3CC(=O)O)cc(-c3ccnc(CN)c3)c2o1 [Compound 219c, 2-(2-((7-(2-(aminomethyl)pyridin-4-yl)-2-isobutylbenzofuran-5-yl)methoxy)phenyl)acetic acid] | < 1000 nM
2 | NCc1ccc(-c2cc(COc3ccccc3CC(=O)O)cc3ccoc23)o1 [Compound 207c, 2-(2-((7-(5-(aminomethyl)furan-2-yl)benzofuran-5-yl)methoxy)phenyl)acetic acid] | < 1000 nM
3 | COc1ccc(CC(=O)O)c(OCc2cc(-c3ccnc(CN)c3)c3oc(F)cc3c2)c1 [Compound 492b, 2-(2-((7-(2-(aminomethyl)pyridin-4-yl)-2-fluorobenzofuran-5-yl)methoxy)-4-methoxyphenyl)acetic acid] | < 1000 nM
4 | NCc1cccc(-c2cc(COc3ccccc3CC(=O)O)c(F)c3ccoc23)c1F [Compound 137b, 2-(2-((7-(3-(aminomethyl)-2-fluorophenyl)-4-fluorobenzofuran-5-yl)methoxy)phenyl)acetic acid] | < 1000 nM
5 | COCc1cc2cc(COc3ccc(F)cc3CC(=O)O)cc(-c3ccnc(CN)c3F)c2o1 [Compound 528d] | < 1000 nM
6 | COc1ccc(CC(=O)O)c(OCc2cc(-c3ccnc(CN)c3)c3occ(C(F)(F)F)c3c2)c1 [Compound 499b, 2-(2-((7-(2-(aminomethyl)pyridin-4-yl)-3-(trifluoromethyl)benzofuran-5-yl)methoxy)-4-methoxyphenyl)acetic acid] | < 1000 nM
7 | NCc1nccc(-c2cc(COc3ccccc3CC(=O)O)c(F)c3ccoc23)c1F [Compound 171c, 2-(2-((7-(2-(aminomethyl)-3-fluoropyridin-4-yl)-4-fluorobenzofuran-5-yl)methoxy)phenyl)acetic acid] | < 1000 nM
8 | Cc1ccc(CC(=O)O)c(NC(=O)c2nc(-c3cc(F)cc(CN)c3)nn3cccc23)c1 [Compound 63c, 2-(2-(2-(3-(aminomethyl)-5-fluorophenyl)pyrrolo[2,1-f][1,2,4]triazine-4-carboxamido)-4-methylphenyl)acetic acid] | < 1000 nM
9 | Nc1noc2c(-c3cc(COc4ccccc4CC(=O)O)cc4ccoc34)cccc12 [Compound 180e, 2-(2-((7-(3-aminobenzo[d]isoxazol-7-yl)benzofuran-5-yl)methoxy)phenyl)acetic acid] | < 1000 nM
10 | CCc1ccc(CC(=O)O)c(OCc2cc(-c3ccnc(CN)c3F)c3occc3c2)c1 [Compound 375c, 2-(2-((7-(2-(aminomethyl)-3-fluoropyridin-4-yl)benzofuran-5-yl)methoxy)-4-ethylphenyl)acetic acid] | < 1000 nM
11 | COc1cncc(NCc2cc3cc(COc4ccccc4CC(=O)O)cc(-c4cccc(CN)c4)c3o2)c1 [Compound 279c, 2-(2-((7-(3-(aminomethyl)phenyl)-2-(((5-methoxypyridin-3-yl)amino)methyl)benzofuran-5-yl)methoxy)phenyl)acetic acid] | < 1000 nM
12 | NCc1cccc(-c2cc(NC(=O)[C@@H]3CCC[C@H]3C(=O)NCc3cccc(Cl)c3F)cc3ccoc23)c1 (relative stereo) [Compound 217e, (trans)-N1-(7-(3-(aminomethyl)phenyl)benzofuran-5-yl)-N2-(3-chloro-2-fluorobenzyl)cyclopentane-1,2-dicarboxamide] | < 1000 nM
13 | CC(N)c1cc2cc(COc3ccccc3CC(=O)O)cc(-c3cccc(CN)c3)c2o1 (single isomer, unassigned; (-)) [Compound 442d, (−)-2-(2-((2-(1-aminoethyl)-7-(3-(aminomethyl)phenyl)benzofuran-5-yl)methoxy)phenyl)acetic acid] | < 1000 nM
14 | NCc1ccc(CC(=O)O)c(OCc2cc(-c3ccnc(CN)c3)c3occc3c2)c1 [Compound 451c, 2-(4-(aminomethyl)-2-((7-(2-(aminomethyl)pyridin-4-yl)benzofuran-5-yl)methoxy)phenyl)acetic acid] | < 1000 nM
15 | Cc1ccc(CC(=O)O)c(OCc2cc(-c3cccc(CN)c3F)c3occc3c2)c1C [Compound 304b, 2-(2-((7-(3-(aminomethyl)-2-fluorophenyl)benzofuran-5-yl)methoxy)-3,4-dimethylphenyl)acetic acid] | < 1000 nM
16 | COCc1cc2cc(COc3ccccc3CC(=O)O)cc(-c3cccc(C(N)CF)c3)c2o1 (single isomer, unassigned; (+)) [Compound 278e, (+)-2-(2-((7-(3-(1-amino-2-fluoroethyl)phenyl)-2-(methoxymethyl)benzofuran-5-yl)methoxy)phenyl)acetic acid] | < 1000 nM
17 | NCc1cc(-c2cc(COc3ccc(F)cc3CC(=O)O)c(F)c3ccoc23)ccn1 [Compound 389c, 2-(2-((7-(2-(aminomethyl)pyridin-4-yl)-4-fluorobenzofuran-5-yl)methoxy)-5-fluorophenyl)acetic acid] | < 1000 nM
18 | Cc1ccc(CC(=O)O)c(OCc2cc(-c3ccnc(CN)c3F)c3occc3c2)c1C [Compound 305d, 2-(2-((7-(2-(aminomethyl)-3-fluoropyridin-4-yl)benzofuran-5-yl)methoxy)-3,4-dimethylphenyl)acetic acid] | < 1000 nM

Row | Structure (SMILES) | IC50
19 | Cc1ccc(CC(=O)O)c(OCc2cc(-c3cccc(CN)c3)c3oc(C)cc3c2)c1 [Compound 423c, 2-(2-((7-(3-(aminomethyl)phenyl)-2-methylbenzofuran-5-yl)methoxy)-4-methylphenyl)acetic acid] | < 1000 nM
20 | COCc1cc2cc(COc3cc(NC(C)=O)ccc3CC(=O)O)cc(-c3cccc(CN)c3F)c2o1 [Compound 441c, 2-(4-acetamido-2-((7-(3-(aminomethyl)-2-fluorophenyl)-2-(methoxymethyl)benzofuran-5-yl)methoxy)phenyl)acetic acid] | < 1000 nM
21 | Cc1ccc(CC(=O)O)c(OCc2cc(-c3cccc(CN)c3)c3occc3c2)c1 [Compound 202c, 2-(2-((7-(3-(aminomethyl)phenyl)benzofuran-5-yl)methoxy)-4-methylphenyl)acetic acid] | < 1000 nM
22 | COCc1cc2cc(COc3cc(CN)ccc3CC(=O)O)cc(-c3cccc(CN)c3F)c2o1 [Compound 440c, 2-(4-(aminomethyl)-2-((7-(3-(aminomethyl)-2-fluorophenyl)-2-(methoxymethyl)benzofuran-5-yl)methoxy)phenyl)acetic acid] | < 1000 nM
23 | NCc1cccc(-c2cc(COc3cc4occc4cc3CC(=O)O)cc3ccoc23)c1 [Compound 298f, 2-(6-((7-(3-(aminomethyl)phenyl)benzofuran-5-yl)methoxy)benzofuran-5-yl)acetic acid] | < 1000 nM
24 | NCc1cccc(-c2cc(COc3cc(-c4ccncc4)ccc3CC(=O)O)cc3ccoc23)c1 [Compound 323c, 2-(2-((7-(3-(aminomethyl)phenyl)benzofuran-5-yl)methoxy)-4-(pyridin-4-yl)phenyl)acetic acid] | < 1000 nM
25 | NCc1cccc(-c2cc(C(=O)Nc3ccccc3CC(=O)O)cc3[nH]ccc23)c1 [Compound 9d, 2-(2-(4-(3-(aminomethyl)phenyl)-1H-indole-6-carboxamido)phenyl)acetic acid] | < 1000 nM
26 | N[C@H](c1cc(-c2cc(COc3ccccc3CC(=O)O)cc3ccoc23)ccn1)C(F)(F)F [Compound 380e, (R)-2-(2-((7-(2-(1-amino-2,2,2-trifluoroethyl)pyridin-4-yl)benzofuran-5-yl)methoxy)phenyl)acetic acid] | > 10000 nM
27 | NCc1cccc(-c2cc(COc3ccccc3CC(=O)O)cc3c2ccn3Cc2ccccc2)c1 [Compound 362e, 2-(2-((4-(3-(aminomethyl)phenyl)-1-benzyl-1H-indol-6-yl)methoxy)phenyl)acetic acid] | < 1000 nM
28 | NCc1cccc(-c2cc(COc3ccccc3CC(=O)O)cc3cc(C4CC4)oc23)c1 [Compound 55g, 2-(2-((7-(3-(aminomethyl)phenyl)-2-cyclopropylbenzofuran-5-yl)methoxy)phenyl)acetic acid] | < 1000 nM
29 | CCCc1cc2cc(COc3ccccc3CC(=O)O)cc(-c3ccnc(CN)c3)c2o1 [Compound 189c, 2-(2-((7-(2-(aminomethyl)pyridin-4-yl)-2-propylbenzofuran-5-yl)methoxy)phenyl)acetic acid] | < 1000 nM
30 | CCc1ccc(CC(=O)O)c(OCc2cc(-c3cccc(CN)c3)c3occc3c2)c1 [Compound 316b, 2-(2-((7-(3-(aminomethyl)phenyl)benzofuran-5-yl)methoxy)-4-ethylphenyl)acetic acid] | < 1000 nM
31 | COc1ccc(CC(=O)O)c(OCc2cc(-c3cccc(CN)c3)c3oc(F)cc3c2)c1 [Compound 480c, 2-(2-((7-(3-(aminomethyl)phenyl)-2-fluorobenzofuran-5-yl)methoxy)-4-methoxyphenyl)acetic acid] | < 1000 nM
32 | NCc1nccc(-c2cc(COc3cc(F)ccc3CC(=O)O)cc3cc(F)oc23)c1F [Compound 522c, 2-(2-((7-(2-(aminomethyl)-3-fluoropyridin-4-yl)-2-fluorobenzofuran-5-yl)methoxy)-4-fluorophenyl)acetic acid] | < 1000 nM
33 | CS(=O)(=O)n1ccc2c(-c3cccc(CN)c3F)cc(COc3ccccc3CC(=O)O)cc21 [Compound 198b, 2-(2-((4-(3-(aminomethyl)-2-fluorophenyl)-1-(methylsulfonyl)-1H-indol-6-yl)methoxy)phenyl)acetic acid] | < 1000 nM
34 | CCN(CC)c1ccc(CC(=O)O)c(OCc2cc(-c3cccc(CN)c3)c3occc3c2)c1 [Compound 306f, 2-(2-((7-(3-(aminomethyl)phenyl)benzofuran-5-yl)methoxy)-4-(diethylamino)phenyl)acetic acid] | < 1000 nM
35 | COCc1cc2cc(COc3cc(F)ccc3CC(=O)O)cc(-c3cccc(CN)c3)c2o1 [Compound 477c, 2-(2-((7-(3-(aminomethyl)phenyl)-2-(methoxymethyl)benzofuran-5-yl)methoxy)-4-fluorophenyl)acetic acid] | < 1000 nM
